Test results: PubChem BioAssay (NCI)
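96-well plates; 48 h exposure; 5 concentrations. Endpoints by linear interpolation between flanking doses. Not reached: highest tested concentration assigned. The concentration for 50% growth inhibition is given as GI50. TGI marks complete inhibition of growth.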

Legend:
Assay in all cases: NCI tumour cell line growth inhibition, 48 h
DMS 273 small cell lung = tested on: DMS 273 small cell lung
SN12K1 renal = tested on: SN12K1 renal
P388/ADR leukemia = tested on: P388/ADR leukemia
P388 leukemia = tested on: P388 leukemia
DMS 114 small cell lung = tested on: DMS 114 small cell lung
LXFL 529 NSCLC = tested on: LXFL 529 NSCLC
RXF-631 renal = tested on: RXF-631 renal

Structure (SMILES): CCCCCCc1cn([C@H]2C[C@H](O)[C@@H](CO)O2)c(=O)[nH]c1=O
- TGI (DMS 273 small cell lung): > 100 µM
- TGI (SN12K1 renal): > 100 µM
- TGI (P388/ADR leukemia): > 100 µM
- TGI (P388 leukemia): > 100 µM
- TGI (DMS 114 small cell lung): > 100 µM

Structure (SMILES): NC1CCCCC1N.O=S(=O)([O-])CCCN1CCN(CCO)CC1.O=S(=O)([O-])CCCN1CCN(CCO)CC1.[Pt+4]
- GI50 (DMS 273 small cell lung): 1.24 µM
- TGI (DMS 273 small cell lung): 19.9 µM
- GI50 (SN12K1 renal): 3.29 µM
- TGI (SN12K1 renal): > 100 µM
- GI50 (P388/ADR leukemia): 2.56 µM
- TGI (P388/ADR leukemia): > 47.7 µM
- GI50 (P388 leukemia): 0.129 µM
- TGI (P388 leukemia): > 32 µM

Structure (SMILES): c1ccc(-c2[nH]c(-c3ccccc3)c(-c3cnccn3)c2-c2cnccn2)cc1
- TGI (DMS 273 small cell lung): > 100 µM
- TGI (DMS 114 small cell lung): > 100 µM

Structure (SMILES): CC(=O)O[C@H]1C(=O)[C@@]2(C)C(C(OC(=O)c3ccccc3)[C@]3(O)CC(OC(=O)C(O)C(NC(=O)c4ccccc4)c4ccc(C)cc4)C(C)=C1C3(C)C)[C@]1(OC(C)=O)CO[C@@H]1C[C@@H]2O (stereo partly specified)
- TGI (DMS 273 small cell lung): 2.89 µM
- TGI (LXFL 529 NSCLC): 11.1 µM
- TGI (DMS 114 small cell lung): 0.168 µM

Structure (SMILES): Nc1ccc(-c2nc3ccccc3s2)cc1
- TGI (LXFL 529 NSCLC): 33.4 µM
- TGI (RXF-631 renal): 46.2 µM
- TGI (DMS 114 small cell lung): 39.1 µM

Structure (SMILES): CC1OC=CC(=O)C1O (stereo unspecified)
- TGI (LXFL 529 NSCLC): > 100 µM

Structure (SMILES): CN(CCN(C)C(=O)CCn1ccc(=O)[nH]c1=O)C(=O)CCn1ccc(=O)[nH]c1=O
- TGI (DMS 273 small cell lung): > 100 µM
- TGI (LXFL 529 NSCLC): > 100 µM
- TGI (DMS 114 small cell lung): > 100 µM

Structure (SMILES): CC1(C)N=C(N)N=C(N)N1c1ccc(OCCCOc2ccccc2)c(Cl)c1
- TGI (DMS 273 small cell lung): 1.15 µM
- TGI (SN12K1 renal): 11.2 µM
- TGI (P388/ADR leukemia): > 100 µM
- TGI (P388 leukemia): 10.3 µM
- TGI (DMS 114 small cell lung): 14.3 µM

Structure (SMILES): COc1ccc(N2C(=O)C(N3C(=O)C=CC3=O)C2C=O)cc1 (stereo unspecified)
- TGI (DMS 273 small cell lung): > 100 µM
- TGI (LXFL 529 NSCLC): > 100 µM

Structure (SMILES): O=C1OC(c2ccccc2)=N/C1=C/N1CCCC1C(=O)O (stereo unspecified)
- TGI (DMS 273 small cell lung): > 100 µM
- TGI (LXFL 529 NSCLC): > 100 µM
- TGI (RXF-631 renal): > 100 µM
- TGI (DMS 114 small cell lung): > 100 µM

Structure (SMILES): CC(=O)[C@H]1CCC2[C@@H]3CC=C4C(O)C(OS(=O)(=O)O)CC[C@]4(C)C3CC[C@@]21C (stereo partly specified)
- TGI (DMS 273 small cell lung): > 100 µM
- TGI (SN12K1 renal): > 100 µM
- TGI (P388/ADR leukemia): > 100 µM
- TGI (P388 leukemia): > 100 µM
- TGI (DMS 114 small cell lung): > 100 µM

Structure (SMILES): c1ccc(COc2cccc3cccnc23)cc1
- TGI (LXFL 529 NSCLC): > 100 µM
- TGI (RXF-631 renal): > 100 µM
- TGI (DMS 114 small cell lung): > 100 µM

Structure (SMILES): C=C1CC(OC)(C(O)C(=O)N[C@H]2OCO[C@H]3C2O[C@H](C[C@H](O)COC)C(C)(C)C3OC)O[C@H](C)[C@@H]1C (stereo partly specified)
- TGI (SN12K1 renal): > 0.00772 µM
- TGI (P388 leukemia): > 0.00772 µM
- TGI (DMS 114 small cell lung): > 0.00772 µM

Structure (SMILES): COc1cc(C2(C)SCCCS2)c(I)c(OC)c1OC
- TGI (DMS 273 small cell lung): > 100 µM
- TGI (LXFL 529 NSCLC): > 100 µM
- TGI (RXF-631 renal): > 100 µM
- TGI (DMS 114 small cell lung): > 100 µM
